Results from ChEMBL document CHEMBL2321810, “QSAR investigation of NaV1.7 active compounds using the SVM/Signature approach and the Bioclipse Modeling platform” (Bioorg Med Chem Lett, 2013).

Each molecule was assayed against Sodium channel protein type 9 subunit alpha (Homo sapiens, UniProt Q15858) (assay: cell-based).
Sequence of Sodium channel protein type 9 subunit alpha (Q15858 whole entry): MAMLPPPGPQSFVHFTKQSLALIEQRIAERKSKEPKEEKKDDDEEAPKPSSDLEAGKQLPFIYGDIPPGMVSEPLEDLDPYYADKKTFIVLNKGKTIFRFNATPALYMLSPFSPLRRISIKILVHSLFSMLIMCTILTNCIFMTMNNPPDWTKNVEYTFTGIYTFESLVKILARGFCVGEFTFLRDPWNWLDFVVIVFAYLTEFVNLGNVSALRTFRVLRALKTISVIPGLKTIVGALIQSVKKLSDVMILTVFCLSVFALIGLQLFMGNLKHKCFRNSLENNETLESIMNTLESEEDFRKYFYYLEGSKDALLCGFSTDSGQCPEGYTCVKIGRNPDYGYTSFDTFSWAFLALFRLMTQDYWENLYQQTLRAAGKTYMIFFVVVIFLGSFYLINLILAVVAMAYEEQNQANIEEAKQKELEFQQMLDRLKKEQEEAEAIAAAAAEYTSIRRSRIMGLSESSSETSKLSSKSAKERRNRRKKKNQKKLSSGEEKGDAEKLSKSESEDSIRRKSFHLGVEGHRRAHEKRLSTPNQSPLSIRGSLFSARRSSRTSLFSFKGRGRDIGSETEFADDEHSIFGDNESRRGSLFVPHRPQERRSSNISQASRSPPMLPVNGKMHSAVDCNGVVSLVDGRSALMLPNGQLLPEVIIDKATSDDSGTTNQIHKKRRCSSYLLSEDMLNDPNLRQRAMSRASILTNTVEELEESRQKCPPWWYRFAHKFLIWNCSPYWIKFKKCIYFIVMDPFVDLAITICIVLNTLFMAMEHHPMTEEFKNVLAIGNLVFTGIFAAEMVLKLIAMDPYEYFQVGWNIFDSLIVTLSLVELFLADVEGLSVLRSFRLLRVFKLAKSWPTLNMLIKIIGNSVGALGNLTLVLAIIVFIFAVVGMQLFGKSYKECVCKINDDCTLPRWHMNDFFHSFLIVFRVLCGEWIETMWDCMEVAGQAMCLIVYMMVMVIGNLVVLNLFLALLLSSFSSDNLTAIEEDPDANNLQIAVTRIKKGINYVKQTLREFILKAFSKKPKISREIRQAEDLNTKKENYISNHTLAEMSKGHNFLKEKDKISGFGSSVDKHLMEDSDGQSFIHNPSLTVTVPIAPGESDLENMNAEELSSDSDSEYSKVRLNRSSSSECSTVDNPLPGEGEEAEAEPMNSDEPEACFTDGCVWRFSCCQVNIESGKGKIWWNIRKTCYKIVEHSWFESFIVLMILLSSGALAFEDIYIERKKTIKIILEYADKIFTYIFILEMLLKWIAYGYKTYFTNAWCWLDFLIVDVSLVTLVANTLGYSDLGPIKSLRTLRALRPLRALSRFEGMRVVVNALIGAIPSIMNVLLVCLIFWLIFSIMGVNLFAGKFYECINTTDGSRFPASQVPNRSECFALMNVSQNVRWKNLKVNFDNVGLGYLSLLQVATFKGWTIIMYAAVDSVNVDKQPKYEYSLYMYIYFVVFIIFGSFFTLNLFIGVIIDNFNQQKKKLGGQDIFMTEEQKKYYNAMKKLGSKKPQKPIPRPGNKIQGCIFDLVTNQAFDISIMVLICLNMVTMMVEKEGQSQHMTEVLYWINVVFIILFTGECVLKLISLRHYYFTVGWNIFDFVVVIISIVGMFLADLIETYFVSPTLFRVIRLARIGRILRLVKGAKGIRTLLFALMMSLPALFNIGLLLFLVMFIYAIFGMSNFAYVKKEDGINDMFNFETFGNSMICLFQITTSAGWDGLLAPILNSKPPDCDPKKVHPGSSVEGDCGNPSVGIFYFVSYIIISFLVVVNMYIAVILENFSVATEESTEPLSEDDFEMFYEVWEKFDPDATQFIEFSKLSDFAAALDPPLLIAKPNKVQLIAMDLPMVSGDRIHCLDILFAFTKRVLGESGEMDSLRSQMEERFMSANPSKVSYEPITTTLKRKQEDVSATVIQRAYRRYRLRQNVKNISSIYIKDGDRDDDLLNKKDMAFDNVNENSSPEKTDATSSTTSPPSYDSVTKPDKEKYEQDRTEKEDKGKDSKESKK
An IC50 of 3000 nM was found for `COc1cc(Oc2ccc(S(=O)(=O)Nc3ccc(F)cn3)cc2C#N)ccc1-n1cccn1` in this work. An IC50 of 3000 nM was found for `N#Cc1cc(S(=O)(=O)Nc2ccc(F)cn2)ccc1Oc1ccc(-c2cocn2)cc1` in this work. An IC50 of 2700 nM was found for `COc1cc(-c2ccc(Oc3ccc(S(=O)(=O)Nc4nccs4)cc3)c(F)c2)n(C)n1` in this work. An IC50 of 3000 nM was found for `N#Cc1cc(S(=O)(=O)Nc2ccc(F)cn2)ccc1Oc1ccccc1C1CCCCO1` (stereo not drawn) in this work. An IC50 of 3000 nM was found for `N#Cc1cc(S(=O)(=O)Nc2ccccc2C(F)(F)F)ccc1Oc1ccccc1-c1ccccc1` in this work. An IC50 of 3000 nM was found for `CC(C)Oc1cc(-c2cc(F)ccc2Oc2ccc(S(=O)(=O)Nc3cscn3)cc2C#N)n(C)n1` in this work. An IC50 of 3000 nM was found for `Cc1ccc(NS(=O)(=O)c2ccc(Oc3ccccc3-c3ccccc3)c(C#N)c2)nc1` in this work. An IC50 of 3000 nM was found for `CCc1nnc(C)n1-c1ccc(Oc2ccc(S(=O)(=O)Nc3ccc(F)cn3)cc2C#N)cc1` in this work. An IC50 of 3000 nM was found for `N#Cc1cc(S(=O)(=O)Nc2ccc(F)cn2)ccc1Oc1ccc(-n2ccnc2)cc1` in this work. An IC50 of 3000 nM was found for `Cc1nc(-c2cccc(Oc3ccc(S(=O)(=O)Nc4ccc(F)cn4)cc3C#N)c2)no1` in this work. An IC50 of 3000 nM was found for `Cc1nnc(-c2ccc(Oc3ccc(S(=O)(=O)Nc4ccc(F)cn4)cc3C#N)cc2)o1` in this work. An IC50 of 1500 nM was found for `Cn1nccc1-c1cc(Cl)ccc1Oc1ccc(S(=O)(=O)Nc2ccon2)cc1C#N` in this work. An IC50 of 1000 nM was found for `N#Cc1cc(S(=O)(=O)Nc2ncns2)ccc1Oc1ccc(-c2nc(CO)co2)cc1` in this work. An IC50 of 1000 nM was found for `N#Cc1cc(S(=O)(=O)Nc2nccs2)ccc1Oc1ccc(-n2cc(F)cn2)cc1` in this work. An IC50 of 1100 nM was found for `Cc1cc(-c2ccnn2C)ccc1Oc1ccc(S(=O)(=O)Nc2ncc(F)s2)cc1C#N` in this work. An IC50 of 1000 nM was found for `CCn1nc(C(F)(F)F)cc1-c1ccc(Oc2ccc(S(=O)(=O)Nc3ncccn3)cc2C#N)cc1` in this work. An IC50 of 1000 nM was found for `Cn1ncnc1-c1cc(Cl)ccc1Oc1ccc(S(=O)(=O)Nc2ncc(F)s2)cc1F` in this work. An IC50 of 1000 nM was found for `CN(C)C(=O)c1cnn(-c2ccc(Oc3ccc(S(=O)(=O)Nc4nccs4)cc3C#N)cc2)c1` in this work. An IC50 of 1000 nM was found for `COCc1cnn(-c2ccc(Oc3ccc(S(=O)(=O)Nc4nccs4)cc3C#N)cc2)c1` in this work. An IC50 of 1000 nM was found for `CN(C)Cc1cnn(-c2ccc(Oc3ccc(S(=O)(=O)Nc4nccs4)cc3C#N)cc2)c1` in this work. An IC50 of 1000 nM was found for `CC(C)(C)NC(=O)c1cnn(-c2ccc(Oc3ccc(S(=O)(=O)Nc4nccs4)cc3C#N)cc2)c1` in this work. An IC50 of 1000 nM was found for `N#Cc1cc(S(=O)(=O)Nc2cscn2)ccc1Oc1ccc(Cl)cc1-n1cnc(C(F)(F)F)c1` in this work. An IC50 of 1000 nM was found for `N#Cc1cc(S(=O)(=O)Nc2cscn2)ccc1Oc1ccc(F)cc1-c1cnn(CC(F)(F)F)c1` in this work. An IC50 of 1000 nM was found for `N#Cc1ccnc(NS(=O)(=O)c2ccc(Oc3ccccc3-c3ccccc3)c(C#N)c2)c1` in this work. An IC50 of 1000 nM was found for `Cn1nccc1-c1cccc(Oc2ccc(S(=O)(=O)Nc3nccs3)cc2C#N)c1` in this work. An IC50 of 1000 nM was found for `COc1cccc(-c2ccc(Oc3ccc(S(=O)(=O)Nc4nccs4)cc3C#N)cc2)n1` in this work. An IC50 of 1000 nM was found for `N#Cc1cc(S(=O)(=O)Nc2nccs2)ccc1Oc1ccc(-c2nccc(C(F)(F)F)n2)cc1` in this work. An IC50 of 1000 nM was found for `N#Cc1cc(S(=O)(=O)Nc2nccs2)ccc1Oc1ccc(-c2cn(CC(F)(F)F)nc2N)cc1` in this work. An IC50 of 1000 nM was found for `Cn1cc(-c2ccc(Oc3ccc(S(=O)(=O)Nc4nccs4)cc3C#N)cc2)c(N)n1` in this work. An IC50 of 1000 nM was found for `N#Cc1cc(S(=O)(=O)Nc2nccs2)ccc1Oc1ccc(N2CCNC2=O)cc1` in this work. An IC50 of 1000 nM was found for `CN1CCN(c2ccc(Oc3ccc(SNc4nccs4)cc3C#N)cc2)C1=O` in this work. An IC50 of 1000 nM was found for `N#Cc1cc(S(=O)(=O)Nc2nccs2)ccc1Oc1ccc(N2CCCC2=O)cc1` in this work. An IC50 of 1000 nM was found for `N#Cc1cc(S(=O)(=O)Nc2nccs2)ccc1Oc1ccc(-n2cccn2)cc1C(F)(F)F` in this work. An IC50 of 1000 nM was found for `N#Cc1cc(S(=O)(=O)Nc2nccs2)ccc1Oc1ccc(-n2cc(Cl)cn2)c(C(=O)O)c1` in this work. An IC50 of 1000 nM was found for `CC(C)(C)n1ccc(-c2cc(F)ccc2Oc2cc(F)c(S(=O)(=O)Nc3cscn3)cc2Cl)n1` in this work. An IC50 of 1000 nM was found for `Nc1nccc(-c2cc(F)ccc2Oc2cc(F)c(S(=O)(=O)Nc3ncc(Cl)s3)cc2F)n1` in this work. An IC50 of 1000 nM was found for `Cc1scnc1NS(=O)(=O)c1cc(Cl)c(Oc2ccc(F)cc2-c2ccnn2C)cc1F` in this work. An IC50 of 1000 nM was found for `Cn1nccc1-c1ccc(Oc2ccc(S(=O)(=O)Nc3nccs3)cc2C#N)cn1` in this work.
